Several values for one entry are separate records, joined by “and”; a condition that tells them apart may be missing. Equal entries are not always repeated.
Key:
Parameters in all cases: scale not given: the % may be the effect or the level left
[1] = system: Tyrosine-protein kinase ABL1 (Homo sapiens), P00519 [F317L]; experiment: Inhibition of non-phosphorylated human ABL1 F317L mutant assessed as percent of control at 2000 nM by KINOMEscan assay relative to control
[2] = molecular target: Mitogen-activated protein kinase kinase kinase 2 (Homo sapiens) (UniProt Q9Y2U5); experiment: Inhibition of human MAP3K2 assessed as percent of control at 2000 nM by KINOMEscan assay relative to control
[3] = molecular target: Uncharacterized serine/threonine-protein kinase SBK3 (Homo sapiens) (UniProt P0C264); experiment: Inhibition of human SgK110 assessed as percent of control at 2000 nM by KINOMEscan assay relative to control
Sequence of Uncharacterized serine/threonine-protein kinase SBK3 (Homo sapiens) (P0C264 whole entry): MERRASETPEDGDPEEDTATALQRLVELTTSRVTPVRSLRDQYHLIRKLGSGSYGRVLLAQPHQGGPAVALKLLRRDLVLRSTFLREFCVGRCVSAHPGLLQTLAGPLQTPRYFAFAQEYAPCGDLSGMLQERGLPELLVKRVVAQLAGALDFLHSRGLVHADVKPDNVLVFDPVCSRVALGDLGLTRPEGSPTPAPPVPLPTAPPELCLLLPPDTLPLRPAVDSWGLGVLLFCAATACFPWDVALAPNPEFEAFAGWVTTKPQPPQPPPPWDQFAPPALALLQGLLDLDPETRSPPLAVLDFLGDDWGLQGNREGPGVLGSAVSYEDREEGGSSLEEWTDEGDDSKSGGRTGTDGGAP

[4] = molecular target: Serine/threonine-protein kinase 38 (Homo sapiens) (UniProt Q15208); experiment: Inhibition of human NDR1 assessed as percent of control at 2000 nM by KINOMEscan assay relative to control
Sequence of Serine/threonine-protein kinase 38 (Homo sapiens) (Q15208 2-465 limits assumed): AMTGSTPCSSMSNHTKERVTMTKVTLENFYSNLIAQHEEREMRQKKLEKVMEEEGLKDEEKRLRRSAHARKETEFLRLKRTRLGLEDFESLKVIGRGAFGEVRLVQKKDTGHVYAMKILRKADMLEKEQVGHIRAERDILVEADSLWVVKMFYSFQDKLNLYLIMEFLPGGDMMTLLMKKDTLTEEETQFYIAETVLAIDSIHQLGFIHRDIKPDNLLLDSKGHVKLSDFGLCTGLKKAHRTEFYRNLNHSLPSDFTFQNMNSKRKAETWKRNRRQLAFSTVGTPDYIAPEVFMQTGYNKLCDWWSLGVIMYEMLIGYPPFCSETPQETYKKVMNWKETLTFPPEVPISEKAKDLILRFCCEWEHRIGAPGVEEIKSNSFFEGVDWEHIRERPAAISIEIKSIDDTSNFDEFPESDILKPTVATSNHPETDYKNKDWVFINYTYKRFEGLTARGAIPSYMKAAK

[5] = molecular target: Ribosomal protein S6 kinase alpha-1 (Homo sapiens) (UniProt Q15418); experiment: Inhibition of human N-terminal RSK1 kinase domain 1 assessed as percent of control at 2000 nM by KINOMEscan assay relative to control
[6] = system: Proto-oncogene tyrosine-protein kinase receptor Ret (Homo sapiens), P07949 [V804L]; experiment: Inhibition of human RET V804L mutant assessed as percent of control at 2000 nM by KINOMEscan assay relative to control
[7] = molecular target: Mitogen-activated protein kinase 6 (Homo sapiens) (UniProt Q16659); experiment: Inhibition of human ERK3 assessed as percent of control at 2000 nM by KINOMEscan assay relative to control
Sequence of Mitogen-activated protein kinase 6 (Homo sapiens) (Q16659 whole entry, the tested form may be a part): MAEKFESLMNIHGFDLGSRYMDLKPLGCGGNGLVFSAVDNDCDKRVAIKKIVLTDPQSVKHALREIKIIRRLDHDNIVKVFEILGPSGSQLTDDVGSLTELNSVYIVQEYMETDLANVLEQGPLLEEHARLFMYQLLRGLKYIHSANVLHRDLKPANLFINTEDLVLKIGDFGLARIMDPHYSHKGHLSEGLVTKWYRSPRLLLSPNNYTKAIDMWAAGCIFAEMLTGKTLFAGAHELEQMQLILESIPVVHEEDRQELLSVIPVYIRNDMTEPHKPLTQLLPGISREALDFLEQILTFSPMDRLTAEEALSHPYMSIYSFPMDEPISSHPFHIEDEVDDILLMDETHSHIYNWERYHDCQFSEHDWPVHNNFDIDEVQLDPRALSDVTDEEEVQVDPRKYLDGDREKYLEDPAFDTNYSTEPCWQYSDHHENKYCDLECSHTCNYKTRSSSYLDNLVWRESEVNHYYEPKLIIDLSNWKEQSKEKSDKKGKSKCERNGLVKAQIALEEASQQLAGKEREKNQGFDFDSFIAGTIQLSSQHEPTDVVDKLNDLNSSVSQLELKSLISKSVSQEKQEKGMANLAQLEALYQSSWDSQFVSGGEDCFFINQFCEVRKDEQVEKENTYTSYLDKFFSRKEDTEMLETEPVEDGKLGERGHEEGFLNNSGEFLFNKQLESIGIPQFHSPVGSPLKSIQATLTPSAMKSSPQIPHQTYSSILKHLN

[8] = molecular target: Phosphatidylinositol 3-kinase C2 domain-containing subunit gamma (Homo sapiens) (UniProt O75747); experiment: Inhibition of human PIK3C2G assessed as percent of control at 2000 nM by KINOMEscan assay relative to control
[9] = molecular target: Ephrin type-A receptor 1 (Homo sapiens) (UniProt P21709); experiment: Inhibition of human EPHA1 assessed as percent of control at 2000 nM by KINOMEscan assay relative to control
[10] = molecular target: Epithelial discoidin domain-containing receptor 1 (Homo sapiens) (UniProt Q08345); experiment: Inhibition of human DDR1 assessed as percent of control at 2000 nM by KINOMEscan assay relative to control
[11] = system: Mast/stem cell growth factor receptor Kit (Homo sapiens), P10721 [L576P]; experiment: Inhibition of human KIT L576P mutant assessed as percent of control at 2000 nM by KINOMEscan assay relative to control
[12] = molecular target: Tyrosine-protein kinase receptor TYRO3 (Homo sapiens) (UniProt Q06418); experiment: Inhibition of human TYRO3 assessed as percent of control at 2000 nM by KINOMEscan assay relative to control
Sequence of Tyrosine-protein kinase receptor TYRO3 (Homo sapiens) (Q06418 whole entry): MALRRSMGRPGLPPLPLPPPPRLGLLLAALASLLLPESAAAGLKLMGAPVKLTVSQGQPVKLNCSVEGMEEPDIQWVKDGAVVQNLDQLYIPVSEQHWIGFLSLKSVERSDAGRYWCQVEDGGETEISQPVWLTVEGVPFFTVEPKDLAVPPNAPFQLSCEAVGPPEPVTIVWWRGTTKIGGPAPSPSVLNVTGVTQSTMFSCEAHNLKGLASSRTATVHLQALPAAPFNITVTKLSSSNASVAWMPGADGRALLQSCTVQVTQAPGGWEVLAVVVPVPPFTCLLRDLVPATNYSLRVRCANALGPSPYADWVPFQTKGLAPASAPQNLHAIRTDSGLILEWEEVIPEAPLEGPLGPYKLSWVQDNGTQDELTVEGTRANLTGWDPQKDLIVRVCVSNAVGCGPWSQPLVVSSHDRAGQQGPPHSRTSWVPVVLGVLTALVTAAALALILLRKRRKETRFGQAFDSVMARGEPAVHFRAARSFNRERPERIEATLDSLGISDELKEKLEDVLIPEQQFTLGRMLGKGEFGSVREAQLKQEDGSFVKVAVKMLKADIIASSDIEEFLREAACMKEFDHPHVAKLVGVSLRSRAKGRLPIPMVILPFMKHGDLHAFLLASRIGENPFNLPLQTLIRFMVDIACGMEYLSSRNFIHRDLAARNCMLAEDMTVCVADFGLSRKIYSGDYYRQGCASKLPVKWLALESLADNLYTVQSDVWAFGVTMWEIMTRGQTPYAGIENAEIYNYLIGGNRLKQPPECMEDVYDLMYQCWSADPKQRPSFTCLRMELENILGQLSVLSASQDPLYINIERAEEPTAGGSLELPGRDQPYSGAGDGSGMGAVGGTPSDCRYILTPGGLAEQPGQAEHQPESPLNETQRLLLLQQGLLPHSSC

[13] = molecular target: AP2-associated protein kinase 1 (Homo sapiens) (UniProt Q2M2I8); experiment: Inhibition of human AAK1 assessed as percent of control at 2000 nM by KINOMEscan assay relative to control
[14] = molecular target: Proto-oncogene tyrosine-protein kinase receptor Ret (Homo sapiens) (UniProt P07949); experiment: Inhibition of human RET assessed as percent of control at 2000 nM by KINOMEscan assay relative to control
[15] = molecular target: Macrophage colony-stimulating factor 1 receptor (Homo sapiens) (UniProt P07333); experiment: Inhibition of human CSF1R assessed as percent of control at 2000 nM by KINOMEscan assay relative to control
[16] = molecular target: cGMP-dependent protein kinase 1 (Homo sapiens) (UniProt Q13976); experiment: Inhibition of human PRKG1 assessed as percent of control at 2000 nM by KINOMEscan assay relative to control
[17] = molecular target: Tyrosine-protein kinase HCK (Homo sapiens) (UniProt P08631); experiment: Inhibition of human HCK assessed as percent of control at 2000 nM by KINOMEscan assay relative to control
[18] = molecular target: MAP/microtubule affinity-regulating kinase 4 (Homo sapiens) (UniProt Q96L34); experiment: Inhibition of human MARK4 assessed as percent of control at 2000 nM by KINOMEscan assay relative to control
[19] = molecular target: Non-receptor tyrosine-protein kinase TYK2 (Homo sapiens) (UniProt P29597); experiment: Inhibition of human TYK2 JH1 catalytic domain assessed as percent of control at 2000 nM by KINOMEscan assay relative to control
Sequence of Non-receptor tyrosine-protein kinase TYK2 (Homo sapiens) (P29597 whole entry, the tested form may be a part): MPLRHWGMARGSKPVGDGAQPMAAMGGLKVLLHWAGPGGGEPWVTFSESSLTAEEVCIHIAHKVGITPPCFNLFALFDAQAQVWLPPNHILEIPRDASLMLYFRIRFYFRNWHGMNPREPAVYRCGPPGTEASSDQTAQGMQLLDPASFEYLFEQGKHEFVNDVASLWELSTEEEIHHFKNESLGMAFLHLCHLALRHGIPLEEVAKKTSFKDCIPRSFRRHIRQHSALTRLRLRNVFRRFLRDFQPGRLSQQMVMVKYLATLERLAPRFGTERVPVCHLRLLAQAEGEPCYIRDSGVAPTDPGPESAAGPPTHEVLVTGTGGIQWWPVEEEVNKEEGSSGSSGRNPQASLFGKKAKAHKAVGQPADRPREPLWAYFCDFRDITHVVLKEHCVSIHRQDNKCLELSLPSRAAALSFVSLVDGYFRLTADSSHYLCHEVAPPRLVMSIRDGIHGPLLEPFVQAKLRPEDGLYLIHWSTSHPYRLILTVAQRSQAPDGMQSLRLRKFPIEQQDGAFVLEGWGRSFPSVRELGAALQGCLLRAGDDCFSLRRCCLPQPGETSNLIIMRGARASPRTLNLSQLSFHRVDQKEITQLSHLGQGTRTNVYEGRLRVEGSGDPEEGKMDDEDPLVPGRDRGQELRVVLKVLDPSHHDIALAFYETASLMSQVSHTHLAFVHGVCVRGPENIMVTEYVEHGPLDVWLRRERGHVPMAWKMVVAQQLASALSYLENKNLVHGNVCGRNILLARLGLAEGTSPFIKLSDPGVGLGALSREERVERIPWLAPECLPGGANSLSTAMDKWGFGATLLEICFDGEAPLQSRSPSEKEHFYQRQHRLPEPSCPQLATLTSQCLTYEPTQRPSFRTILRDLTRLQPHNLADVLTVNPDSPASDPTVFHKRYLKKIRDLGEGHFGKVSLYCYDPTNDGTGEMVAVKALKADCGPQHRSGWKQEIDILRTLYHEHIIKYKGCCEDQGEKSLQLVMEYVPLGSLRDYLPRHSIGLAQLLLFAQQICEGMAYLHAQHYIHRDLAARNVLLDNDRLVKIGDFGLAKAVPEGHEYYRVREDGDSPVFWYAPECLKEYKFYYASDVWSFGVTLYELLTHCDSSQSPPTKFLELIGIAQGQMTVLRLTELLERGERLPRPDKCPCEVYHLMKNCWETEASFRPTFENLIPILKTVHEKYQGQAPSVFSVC

[20] = molecular target: Cyclin-dependent kinase 19 (Homo sapiens) (UniProt Q9BWU1); experiment: Inhibition of human CDK11 assessed as percent of control at 2000 nM by KINOMEscan assay relative to control; conditions: INHIBITOR
[21] = molecular target: Leucine-rich repeat serine/threonine-protein kinase 2 (Homo sapiens) (UniProt Q5S007); experiment: Inhibition of human LRRK2 assessed as percent of control at 2000 nM by KINOMEscan assay relative to control
[22] = molecular target: Mitogen-activated protein kinase 14 (Homo sapiens) (UniProt Q16539); experiment: Inhibition of human p38-alpha assessed as percent of control at 2000 nM by KINOMEscan assay relative to control
[23] = molecular target: Wee1-like protein kinase 2 (Homo sapiens) (UniProt P0C1S8); experiment: Inhibition of human WEE2 assessed as percent of control at 2000 nM by KINOMEscan assay relative to control
[24] = molecular target: Mitotic checkpoint serine/threonine-protein kinase BUB1 (Homo sapiens) (UniProt O43683); experiment: Inhibition of human BUB1 assessed as percent of control at 2000 nM by KINOMEscan assay relative to control
[25] = molecular target: Protein kinase C epsilon type (Homo sapiens) (UniProt Q02156); experiment: Inhibition of human PRKCE assessed as percent of control at 2000 nM by KINOMEscan assay relative to control
Sequence of Protein kinase C epsilon type (Homo sapiens) (Q02156 whole entry): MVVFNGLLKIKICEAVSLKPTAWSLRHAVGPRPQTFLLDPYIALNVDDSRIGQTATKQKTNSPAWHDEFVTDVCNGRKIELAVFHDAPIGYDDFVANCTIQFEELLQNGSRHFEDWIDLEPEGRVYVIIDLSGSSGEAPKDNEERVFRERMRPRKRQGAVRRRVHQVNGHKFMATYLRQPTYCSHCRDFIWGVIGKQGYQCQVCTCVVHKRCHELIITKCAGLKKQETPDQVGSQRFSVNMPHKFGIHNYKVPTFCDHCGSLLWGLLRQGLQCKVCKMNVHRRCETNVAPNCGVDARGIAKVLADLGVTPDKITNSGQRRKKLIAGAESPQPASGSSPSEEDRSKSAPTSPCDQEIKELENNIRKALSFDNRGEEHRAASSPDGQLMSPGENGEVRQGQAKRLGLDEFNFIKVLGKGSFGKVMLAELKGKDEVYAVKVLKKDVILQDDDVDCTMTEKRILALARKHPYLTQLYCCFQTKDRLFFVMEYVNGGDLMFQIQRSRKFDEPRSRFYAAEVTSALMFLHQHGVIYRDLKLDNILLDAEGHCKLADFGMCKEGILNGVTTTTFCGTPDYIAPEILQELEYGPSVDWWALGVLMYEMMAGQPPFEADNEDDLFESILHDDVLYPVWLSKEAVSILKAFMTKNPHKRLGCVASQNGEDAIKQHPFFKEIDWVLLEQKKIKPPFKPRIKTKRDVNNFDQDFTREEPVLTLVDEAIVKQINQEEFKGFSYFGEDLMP

[26] = molecular target: Dual specificity testis-specific protein kinase 1 (Homo sapiens) (UniProt Q15569); experiment: Inhibition of human TESK1 assessed as percent of control at 2000 nM by KINOMEscan assay relative to control
[27] = molecular target: Serine/threonine-protein kinase Chk1 (Homo sapiens) (UniProt O14757); experiment: Inhibition of human CHEK1 assessed as percent of control at 2000 nM by KINOMEscan assay relative to control
[28] = molecular target: Serine/threonine-protein kinase ICK (Homo sapiens) (UniProt Q9UPZ9); experiment: Inhibition of human ICK assessed as percent of control at 2000 nM by KINOMEscan assay relative to control
[29] = system: Epidermal growth factor receptor (Homo sapiens), P00533 [UNDEFINED MUTATION]; experiment: Inhibition of human EGFR E746-A750del mutant assessed as percent of control at 2000 nM by KINOMEscan assay relative to control
[30] = molecular target: Transient receptor potential cation channel subfamily M member 6 (Homo sapiens) (UniProt Q9BX84); experiment: Inhibition of human TRPM6 assessed as percent of control at 2000 nM by KINOMEscan assay relative to control
[31] = molecular target: Serine/threonine-protein kinase PAK 2 (Homo sapiens) (UniProt Q13177); experiment: Inhibition of human PAK2 assessed as percent of control at 2000 nM by KINOMEscan assay relative to control
Sequence of Serine/threonine-protein kinase PAK 2 (Homo sapiens) (Q13177 whole entry): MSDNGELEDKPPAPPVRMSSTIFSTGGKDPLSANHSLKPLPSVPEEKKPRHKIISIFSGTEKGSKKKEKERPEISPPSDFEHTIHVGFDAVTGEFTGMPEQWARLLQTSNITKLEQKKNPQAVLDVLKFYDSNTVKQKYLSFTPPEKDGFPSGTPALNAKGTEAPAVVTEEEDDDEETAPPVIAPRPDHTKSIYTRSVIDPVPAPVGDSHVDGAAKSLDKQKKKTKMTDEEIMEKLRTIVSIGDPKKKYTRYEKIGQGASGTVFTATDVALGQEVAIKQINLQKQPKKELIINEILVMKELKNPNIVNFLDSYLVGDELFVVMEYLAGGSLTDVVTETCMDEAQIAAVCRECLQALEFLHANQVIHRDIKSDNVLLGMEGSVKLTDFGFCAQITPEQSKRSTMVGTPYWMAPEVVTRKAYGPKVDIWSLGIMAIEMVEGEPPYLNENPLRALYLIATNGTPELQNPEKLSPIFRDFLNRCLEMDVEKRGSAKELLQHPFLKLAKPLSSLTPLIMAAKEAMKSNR

**Q.** CN(C)C(=O)c1ccc(N2CCCN(c3ccnc4sc(C(N)=O)c(N)c34)CC2)cc1 was tested. Which Activity [1] did it give?
**A.** 99% and 100%

**Q.** And the Activity [2]?
**A.** 98% and 86%

**Q.** What about the Activity [3] of the same compound?
**A.** 95% and 100%

**Q.** And the Activity [4]?
**A.** 100% and 80%

**Q.** And the Activity [5]?
**A.** 98% and 96%

**Q.** What about the Activity [6] of the same compound?
**A.** 100%

**Q.** What about the Activity [7] of the same compound?
**A.** 88% and 94%

**Q.** What about the Activity [8] of the same compound?
**A.** 94% and 82%

**Q.** And the Activity [9]?
**A.** 92% and 95%

**Q.** And the Activity [10]?
**A.** 82% and 90%

**Q.** And the Activity [11]?
**A.** 96% and 75%

**Q.** And the Activity [12]?
**A.** 100%

**Q.** What about the Activity [13] of the same compound?
**A.** 94% and 90%

**Q.** What about the Activity [14] of the same compound?
**A.** 93% and 86%

**Q.** What about the Activity [15] of the same compound?
**A.** 98% and 95%

**Q.** And the Activity [16]?
**A.** 88% and 100%

**Q.** And the Activity [17]?
**A.** 96%

**Q.** And the Activity [18]?
**A.** 100% and 98%

**Q.** And the Activity [19]?
**A.** 95% and 82%

**Q.** And the Activity [20]?
**A.** 13% and 0%

**Q.** What about the Activity [21] of the same compound?
**A.** 94% and 70%

**Q.** And the Activity [22]?
**A.** 93% and 99%

**Q.** What about the Activity [23] of the same compound?
**A.** 97% and 88%

**Q.** And the Activity [24]?
**A.** 88% and 80%

**Q.** What about the Activity [25] of the same compound?
**A.** 93% and 97%

**Q.** And the Activity [26]?
**A.** 83% and 100%

**Q.** What about the Activity [27] of the same compound?
**A.** 94% and 100%

**Q.** And the Activity [28]?
**A.** 84% and 66%

**Q.** And the Activity [29]?
**A.** 100%

**Q.** And the Activity [30]?
**A.** 100% and 80%

**Q.** What about the Activity [31] of the same compound?
**A.** 91% and 94%
